A word on the IC50: it is the midpoint of a concentration-inhibition curve.

Chain of interaction between p53 and MDM2 proteins (recombinant GST-tagged MDM2) (Q00987 whole entry): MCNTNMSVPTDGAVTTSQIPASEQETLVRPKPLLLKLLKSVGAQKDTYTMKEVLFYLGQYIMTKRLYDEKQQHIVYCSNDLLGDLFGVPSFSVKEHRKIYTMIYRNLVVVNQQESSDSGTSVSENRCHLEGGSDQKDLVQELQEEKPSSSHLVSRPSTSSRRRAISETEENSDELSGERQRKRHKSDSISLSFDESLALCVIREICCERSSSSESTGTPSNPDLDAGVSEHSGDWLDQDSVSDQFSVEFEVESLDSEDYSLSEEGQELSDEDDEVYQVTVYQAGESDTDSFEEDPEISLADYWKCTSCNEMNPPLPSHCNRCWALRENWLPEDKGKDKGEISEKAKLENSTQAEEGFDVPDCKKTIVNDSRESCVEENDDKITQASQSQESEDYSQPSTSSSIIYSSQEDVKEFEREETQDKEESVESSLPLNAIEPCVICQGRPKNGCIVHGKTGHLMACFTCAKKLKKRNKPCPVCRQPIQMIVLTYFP

This test addresses interaction between p53 and MDM2 proteins (recombinant GST-tagged MDM2) (Homo sapiens, UniProt Q00987). Put plainly: ELISA of inhibition of p53-MDM2 interaction (GST-tagged MDM2 binding to immobilized p53-like peptide). The conditions noted are these: absorption at 450 nm, triplicate. (In general: In an ELISA, binding on a coated surface is turned into a signal by an enzyme label.)
For `CCC[C@H]1N=C(c2ccc(OC)cc2OCC)N(C(=O)N2CCC(N3CCCC3)CC2)[C@H]1c1ccc(Cl)cc1` (stereo in doubt) [Example 26, [5-(4-Chloro-phenyl)-2-(2-ethoxy-4-methoxy-phenyl)-4-propyl-4,5-dihydro-imidazol-1-yl]-(4-pyrrolidin-1-yl-piperidin-1-yl)-methanone], the IC50 amounted to 45 µM.

For `CCOc1cc(OC)ccc1C1=N[C@H](CC2CCCC2)[C@H](c2ccc(Cl)cc2)N1C(=O)N1CCN(C)CC1` (stereo in doubt) [Example 24, [5-(4-Chloro-phenyl)-4-cyclopentylmethyl-2-(2-ethoxy-4-methoxy-phenyl)-4,5-dihydro-imidazol-1-yl]-(4-methyl-piperazin-1-yl)-methanone], the half-inhibitory concentration (IC50) came to 13.2 µM.

As for `CCOc1cc(OC)ccc1C1=N[C@H](CC2CCCC2)[C@H](c2ccc(Cl)cc2)N1C(=O)N1CCC(N2CCCC2)CC1` (relative stereo) [Example 28, [5-(4-Chloro-phenyl)-4-cyclopentylmethyl-2-(2-ethoxy-4-methoxy-phenyl)-4,5-dihydro-imidazol-1-yl]-(4-pyrrolidin-1-yl-piperidin-1-yl)-methanone], the IC50 turned out to be 5.5 µM.

`CCCCC[C@H]1N=C(c2ccc(OC)cc2OCC)N(C(=O)N2CCC(N3CCCC3)CC2)[C@H]1c1ccc(Cl)cc1` (relative stereo) [Example 55, [5-(4-Chloro-phenyl)-2-(2-ethoxy-4-methoxy-phenyl)-4-pentyl-4,5-dihydro-imidazol-1-yl]-(4-pyrrolidin-1-yl-piperidin-1-yl)-methanone]: the concentration for half-maximal inhibition (IC50) is 0.7 µM.

For the origin of these results see US7132421B2, “CIS-imidazoles” (Hoffmann-La Roche Inc., priority 2003, dated 2006).
